Where two headings read alike, the source gives them in different places.
Columns and labels:
HIV-1 virus = assay: Virus inactivation determined by PCR assay for intracellularly synthesized viral RNA; assay type: cell-based
Description: The thiolester-treated virions can also be tested for infectivity. The virions are suspended in media (rather than solubilized) and added to target cells. The cultures are then examined to determine whether the virions are still active. To determine whether the treated virus particles are active, the cells are monitored for the presence of intracellularly-synthesized viral RNA using, for example, the polymerase chain reaction (PCR) (Rice (1993) Proc. Natl. Acad. Sci. USA 90:9721; Turpin (1996) J. Virol. 70:6180). Alternatively, cytoprotection assays can be used (Weislow (1993) J. Natl. Cancer Inst. 81:577).
An example of a compound which can be used as a control in the gel mobility shift assay is azodicarbonamide (ADA), a compound which is commercially available from the Aldrich Chemical Company (Milwaukee, WI).

HIV-1RF = assay: XTT cytoprotection assay (antiviral activity); assay type: cell-based
Description: (§1) One exemplary means to determine antiviral activity is with CEM-SS cells and virus (e.g., HIV-1RF) (MOI = 0.01) using the XTT (2,3-bis[2-methoxy- 4-nitro-5-sulfophenyl] -5- [(phenylamino)carbonyl]-2H-tetrazolium hydroxide) cytoprotection assay, as described by Rice (1993) PNAS 90:9721-9724, and Rice (1997) Antimicrob. Agents Chemother. 41:419-426. Briefly, cells are infected with HIV-1RF (or other virus to be tested) in the presence of various dilutions of test compounds (thiolesters and controls). The cultures are incubated for seven days. During this time control cultures without protective compounds (i.e., compounds with anti-viral activity) replicate virus, induce syncytia, and result in about 90% cell death. The cell death is measured by XTT dye reduction. XTT is a soluble tetrazolimn dye that measures mitochondrial energy output, similar to MTT. Positive controls using dextran sulfate (an attachment inhibitor) or 3'-Azido -2'-3'-dideoxythymidine, AZT (a reverse transcriptase inhibitor) are added to each assay. Individual assays are done in duplicate using a sister plate method.
(§2) Effective antiviral concentrations providing 50% cytoprotection (EC50), and cellular growth inhibitory concentrations causing 50% cytotoxicity (IC50) are calculated.

CEM-SS cells = assay: cells; assay type: cell-based; details: for IC50: Homo sapiens, CEM-SS
Description: as §1, §2

[1] = biological target: T1, recombinant HIV-1 NCp7 protein (Human immunodeficiency virus type 1 group M subtype B, UniProt P03347); assay: Trp37 zinc finger fluorescence (zinc ejection) assay; assay type: biochemical; details: for Zinc Finger Reactivity RFU/30 min: Table 2
T1 construct: within the nucleocapsid p7 (NCp7) protein portion of the polyprotein
Procedure: Zinc finger reactivity was measured using a Zn specific fluorochrome, TSQ, N-(6-methoxy-8-quinolyl) -p-toluenesulfonamide, assay or a Trp37 zinc finger fluorescence assay. Fluorescent measurements of the Trp37 residue in the C-terminal finger of recombinant HIV-1 NCp7 protein were performed as described by Rice (1995) Science 270:1194-1197; Rice (1997) Antimicrob. Agents Chemother. 41:419-426. Measurement of Zn ejection from both fingers was measured using the Zn-selective fluorchrome probe TSQ (Molecular Probes, Eugene OR) as described by Rice (1996) J. Med. Chem 39:3606-3616. Measurement of the ability of NCp7 to bind to a DNA oligomer, a 44 mer: […] (SEQ ID NO:1), analogous to the HIV-1 RNA packaging site was carried out as described by Huang (1998) J. Med. Chem. 41:1371-1381, see also, Rossio (1998) HIV Pathogenesis and Treatment: Keystone Symposium on Molecular and Cellular Biology, Abstract # 4082. Briefly, 50 nM NCp7 was treated with test compounds for 1 hour at RT in […] buffer containing 10% glycerol and 50 mM Tris-HCl (pH 7.5). Labeled oligomer (0.1 picomole, end labeled [^32P]) was added in an equal volume of buffer containing 10% glycerol, 50 mM Tris-HCl (pH 7.5), 400 mM KCl and 40 mM MgCl2. The reaction was continued for 15 min at room temperature, and a total of […] (or 1/4 of the total reaction volume) was separated on nondenaturing 4.5% polyacrylamide gels in 0.5X Tris-Borate electrophoresis buffer. NCp7-oligomer complexes were visualized by autoradiography.
Changes in the intrinsic fluorescence of aromatic protein moieties are commonly used to monitor a reaction which involves a change in protein conformation. In the present invention, fluorescence can be used to monitor the loss of metal ion from a zinc finger, e.g., the loss of zinc from a CCHC retroviral zinc finger protein, after contact with a thiolester of the invention. The intrinsic fluorescence of Trp 37 in the second zinc finger of HIV-1 NC protein has been used to monitor nucleic acid binding and conformation of the zinc finger complex (see, Summers (1992) supra).
Zinc ejection is measured by the ability of compounds to chemically attack the cysteines in purified NCp7 protein resulting in a loss of fluorescence due to the movement of the tryptophan 37 residue from an exposed to an internal position on the protein. Zinc ejection is measured and expressed as either percent decrease in total fluorescence or decrease in relative fluorescence units per min during a 30 min assay (RFU/min). A thiolester is considered within the scope of the invention if any amount of zinc ejection is detected. For example, compound 50 has a zinc ejection rate of 0.86 RFU/min.

[2] = biological target: T2, Virion-associated NCp7 proteins from cell-free HIV-1MN (Human immunodeficiency virus type 1 group M subtype B, UniProt P05888); assay: Intravirion NCp7 cross-linking, non-reducing Western blotting
T2 construct: an attack on the mature NCp7 retroviral zinc fingers in the cell-free virus; endogenous in cells
Procedure: The interaction of zinc finger inhibitors, such as the thiolesters of the invention, with cell-free virus can result in modification of intravirion NCp7 protein and loss of infectivity. Virion-associated NCp7 proteins from cell-free HIV-1MN were treated with thiolester compounds 44 and 45. They were also evaluated by non-reducing Western blotting using HIV-1 NCp7-specific antibodies. […] Cross-linking by compound 45 was due to formation of intermolecular disulfide bonds because reduction with 2-mercaptoethanol (β-ME) completely reversed the gel retardation.
Virion cross linking was performed as described by Rice (1995) Science 270:1194-1197 and Turpin (1997) Antiviral Chem. Chemother. 8:60-67. Briefly, highly purified HIV-1 MN (11.8 µg total protein) was incubated for 2 hour with concentrations of compound. Virions were concentrated and residual compound was removed by centrifugation (18,000 x g, 1 h, 4°C). The viral pellet was solubilized in 0.5 M Tris-HCl,(pH 6.8), 50% glycerol, 8% SDS and 0.4% bromophenol blue and proteins resolved by Western blotting. Western blotting to detect the expression of HIV-1 proteins in U1 cells or virus pellets for virion cross-linking experiments was carried out as described by Turpin (1996) J. Virol. 70:6180-6189. Briefly, 50 µg of total cellular protein for U1 experiments or the total virion pellet (11.8 µg total viral protein) for NCp7 cross linking studies was resolved on 4 to 20% polyacrylamide gels in SDS with Tris-Glycine (Novex, San Diego CA). Samples for reduced gels were boiled for 5 min in the presence of 5% β-ME prior to loading. Resolved proteins were electroblotted on to polyvinylidene difluoride (PVDF) membranes, and HIV-1 specific proteins were detected using a mixture of goat anti- HIV-1 NCp7 and p24 or anti-NCp7 for virion proteins alone (a kind gift of L. E. Henderson, AIDS Vaccine Program NCI-FCRDC, Frederick, MD). Western blots were developed using standard chemiluminescence methodologies, as produced and described by Dupont-NEN, Wilmington, DE.
Purified concentrated retrovirus and antisera against the purified NC protein of the virus can be used to test the ability of a specific compound to penetrate the virus and react with the NC protein by forming disulfide complexes in the core of the virus. Compound are mixed with the whole retrovirus under reaction conditions appropriate for the compound. The virus is then removed from the reagent by centrifugation and disrupted in, e.g., standard SDS-PAGE sample buffer with (reduced) and without (non-reduced) 2-mercaptoethanol. […] Thus, compounds of interest (i.e., those which cause cross-linking), including the thiolesters of the invention, reduce the amount of monomeric zinc finger protein detected.

[3] = Human immunodeficiency virus 1, read-out: Antiviral Activity EC50
[4] = read-out: Antiviral Activity IC50
[5] = Table 3, average decrease in relative fluorescence
[6] = average decrease in relative fluorescence
[7] = Human immunodeficiency virus 1, read-out: Antiviral Activity EC50%
[8] = Table 6, average decrease in relative fluorescence units over 30 min

| SMILES | EC50 (HIV-1RF; [3]) [µM] | IC50 (CEM-SS cells; [4]) [µM] | Zinc Finger Reactivity RFU/ min [1, 5] [RFU/ min] | also measured |
| --- | --- | --- | --- | --- |
| NC(=O)N=NC(N)=O [ADA, azodicarbonamide] | – | – | – | inactivation of HIV-1 virus (HIV-1 virus): inactivates HIV-1 virus |
| O=C(Nc1ccc(S(=O)(=O)c2ccc(NC(=O)c3ccccc3SSc3ccccc3C(=O)Nc3ccc(S(=O)(=O)c4ccc(NC(=O)c5cc([N+](=O)[O-])cc([N+](=O)[O-])c5)cc4)cc3)cc2)cc1)c1cc([N+](=O)[O-])cc([N+](=O)[O-])c1 [Compound 33D] | 240 | > 316 | 1.6 | – |
| NS(=O)(=O)c1ccc(Cn2sc3ccccc3c2=O)cc1 [23 BITA] | 13.8 | 53.7 | – | IC50 (CEM-SS cells; read-out: IC50 / cellular toxicity): 53.7 µM; Zinc Finger Reactivity RFU/30 min [1, 6]: 2.7 RFU/30 min |
| CC(=O)Nc1ccc(S(=O)(=O)c2ccc(NC(=O)c3ccccc3SC(=O)CCCC[n+]3ccccc3)cc2)cc1 [Compound 51] | – | 288 | – | EC50 (HIV-1RF; [7]): 4.6 µM; Zinc Finger Reactivity RFU/ min [1, 8]: 1.7 RFU/ min |
| CC(=O)Nc1ccc(S(=O)(=O)Nc2ccc(S(=O)(=O)c3ccc(-n4sc5ccccc5c4=O)cc3)cc2)cc1 [28 BITA] | 9.6 | 188 | 7.9 | – |
| O=C(Nc1ccc(S(=O)(=O)c2ccc(NC(=O)c3ccccc3SSc3ccccc3C(=O)Nc3ccc(S(=O)(=O)c4ccc(NC(=O)c5ccc([N+](=O)[O-])cc5)cc4)cc3)cc2)cc1)c1ccc([N+](=O)[O-])cc1 [Compound 32D] | 78 | > 316 | 2.9 | – |
| Cc1cn([C@H]2C[C@H](N=[N+]=[N-])[C@@H](CO)O2)c(=O)[nH]c1=O [AZT, 3'-Azido-2'-3'-dideoxythymidine, reference compound] | – | – | – | intravirion NCp7 cross-linking [2]: failed to cross-link NCp7 |
| O=C(CCCC[n+]1ccccc1)Sc1ccccc1C(=O)Nc1ccc(S(=O)(=O)c2ccc(NS(=O)(=O)Cc3ccccc3[N+](=O)[O-])cc2)cc1 [Compound 50] | – | > 316 | – | EC50 (HIV-1RF; [7]): 2.9 µM; zinc finger reactivity / zinc ejection rate [1]: 0.86 RFU/min; Zinc Finger Reactivity RFU/ min [1, 8]: 0.86 RFU/ min |
| CC(=O)Nc1cccc(S(=O)(=O)c2cccc(NC(=O)c3ccccc3SC(=O)CCCC[n+]3ccccc3)c2)c1 [Compound 52] | – | 205 | – | EC50 (HIV-1RF; [7]): 4.9 µM; Zinc Finger Reactivity RFU/ min [1, 8]: 1.1 RFU/ min |
| NS(=O)(=O)c1ccc(CCn2sc3ccccc3c2=O)cc1 [24 BITA] | 2 | 45.5 | – | Zinc Finger Reactivity RFU/30 min [1, 6]: 2.7 RFU/30 min |
| CC(=O)NS(=O)(=O)c1ccc(NC(=O)c2cccc(NC(=O)CCCl)c2)cc1 [Compound 38] | 38 | – | – | antiviral activity (HIV-1RF; result in words): neither had appreciable antiviral activity; IC50 (CEM-SS cells; read-out: Antiviral Activity IC50%): 103 µM; Zinc Finger Reactivity RFU/ min ([1]; Table 5, average decrease in relative fluorescence units over 30 min): 3.9 RFU/ min; zinc finger reactivity ([1]; result in words): modest zinc finger reactivity |
| CC(=O)Nc1ccc(S(=O)(=O)Nc2ccc(S(=O)(=O)c3ccc(NC(=O)c4ccccc4SSc4ccccc4C(=O)Nc4ccc(S(=O)(=O)c5ccc(NS(=O)(=O)c6ccc(NC(C)=O)cc6)cc5)cc4)cc3)cc2)cc1 [Compound 28D] | 1 | 12.7 | 5.9 | – |
| O=C(Nc1ccc(S(=O)(=O)c2ccc([N+](=O)[O-])cc2)cc1)c1ccccc1SSc1ccccc1C(=O)Nc1ccc(S(=O)(=O)c2ccc([N+](=O)[O-])cc2)cc1 [Compound 31D] | 12.2 | > 316 | 2.9 | EC50 (HIV-1RF; Human immunodeficiency virus 1, read-out: EC50 (concentration inhibiting 50% virus replication)): 12.2 µM; toxicity at the high test dose (CEM-SS cells; high test dose of 316 µM): no toxicity |
| NS(=O)(=O)c1ccc(NC(=O)CNC(=O)c2ccccc2SSc2ccccc2C(=O)NCC(=O)Nc2ccc(S(N)(=O)=O)cc2)cc1 [Compound 25D, N,N'-(2,2'-dithiodibenzoyl)-bis-4-(glycinamido)benzene-sulfonamide] | 1.6 | 17.6 | – | zinc finger reactivity / zinc ejection rate [1]: 7.9 RFU/min; Zinc Finger Reactivity RFU/30 min [1, 6]: 7.9 RFU/30 min |

Source: patent publication EP1087941B9, “THIOLESTERS AND USES THEREOF” (THE UNITED STATES OF AMERICA, as represented by THE …, priority 1998, dated 1999)
